In ChEMBL document CHEMBL4507302, “Data for DCP probe TP-020” (2021):

Legend:
[1] = target: Vascular endothelial growth factor receptor 2 (Homo sapiens) (UniProt P35968); details: Compound concentration 1000.0 nM
[2] = target: Interleukin-1 receptor-associated kinase 1 (Homo sapiens) (UniProt P51617); details: Compound concentration 1000.0 nM
[3] = target: TGF-beta receptor type-1 (Homo sapiens) (UniProt P36897); details: Compound concentration 1000.0 nM
[4] = target: Serine/threonine-protein kinase N1 (Homo sapiens) (UniProt Q16512); details: Compound concentration 1000.0 nM
[5] = target: Interferon-induced, double-stranded RNA-activated protein kinase (Homo sapiens) (UniProt P19525); details: Compound concentration 1000.0 nM
[6] = target: MAP kinase-activated protein kinase 5 (Homo sapiens) (UniProt Q8IW41); details: Compound concentration 1000.0 nM
[7] = target: Phosphatidylinositol 4-phosphate 5-kinase type-1 gamma (Homo sapiens) (UniProt O60331); details: Compound concentration 1000.0 nM
[8] = target: Cyclin-dependent kinase 9 (Homo sapiens) (UniProt P50750); details: Compound concentration 1000.0 nM
[9] = target: Ephrin type-A receptor 2 (Homo sapiens) (UniProt P29317); details: Compound concentration 1000.0 nM
[10] = target: Serine/threonine-protein kinase 17A (Homo sapiens) (UniProt Q9UEE5); details: Compound concentration 1000.0 nM
[11] = target: Fibroblast growth factor receptor 1 (Homo sapiens) (UniProt P11362); details: Compound concentration 1000.0 nM
[12] = target: Serine/threonine-protein kinase pim-1 (Homo sapiens) (UniProt P11309); details: Compound concentration 1000.0 nM
[13] = target: Kappa-type opioid receptor (Homo sapiens) (UniProt P41145); details: Compound concentration 10.0 uM
[14] = target: Serine/threonine-protein kinase Nek5 (Homo sapiens) (UniProt Q6P3R8); details: Compound concentration 1000.0 nM
[15] = target: Phosphatidylinositol 5-phosphate 4-kinase type-2 gamma (Homo sapiens) (UniProt Q8TBX8); details: Compound concentration 1000.0 nM
[16] = target: Serine/threonine-protein kinase TNNI3K (Homo sapiens) (UniProt Q59H18); details: Compound concentration 1000.0 nM
[17] = target: Calcium/calmodulin-dependent protein kinase type 1 (Homo sapiens) (UniProt Q14012); details: Compound concentration 1000.0 nM
[18] = target: 5-hydroxytryptamine receptor 3A (Homo sapiens) (UniProt P46098); details: Compound concentration 10.0 uM
[19] = target: Myotonin-protein kinase (Homo sapiens) (UniProt Q09013); details: Compound concentration 1000.0 nM
[20] = target: Tyrosine-protein kinase JAK2 (Homo sapiens) (UniProt O60674); details: Compound concentration 1000.0 nM
[21] = target: Serine/threonine-protein kinase BRSK2 (Homo sapiens) (UniProt Q8IWQ3); details: Compound concentration 1000.0 nM
[22] = target: Serine/threonine-protein kinase 36 (Homo sapiens) (UniProt Q9NRP7); details: Compound concentration 1000.0 nM
[23] = target: AP2-associated protein kinase 1 (Homo sapiens) (UniProt Q2M2I8); details: Compound concentration 1000.0 nM
[24] = test system: Hepatocyte growth factor receptor (Homo sapiens), P08581 [M1250T]; details: Compound concentration 1000.0 nM
[25] = target: Serine/threonine-protein kinase WNK1 (Homo sapiens) (UniProt Q9H4A3); details: Compound concentration 1000.0 nM
[26] = target: Casein kinase I isoform gamma-3 (Homo sapiens) (UniProt Q9Y6M4); details: Compound concentration 1000.0 nM
[27] = target: Mitogen-activated protein kinase 14 (Homo sapiens) (UniProt Q16539); details: Compound concentration 1000.0 nM
[28] = target: Cyclin-dependent kinase 7 (Homo sapiens) (UniProt P50613); details: Compound concentration 1000.0 nM
[29] = target: Cyclin-dependent kinase 13 (Homo sapiens) (UniProt Q14004); details: Compound concentration 1000.0 nM
[30] = target: Dual specificity mitogen-activated protein kinase kinase 2 (Homo sapiens) (UniProt P36507); details: Compound concentration 1000.0 nM
[31] = target: Serine/threonine-protein kinase LATS1 (Homo sapiens) (UniProt O95835); details: Compound concentration 1000.0 nM
[32] = target: Activin receptor type-1B (Homo sapiens) (UniProt P36896); details: Compound concentration 1000.0 nM
[33] = target: Dual specificity testis-specific protein kinase 1 (Homo sapiens) (UniProt Q15569); details: Compound concentration 1000.0 nM
[34] = target: Ephrin type-B receptor 4 (Homo sapiens) (UniProt P54760); details: Compound concentration 1000.0 nM
[35] = target: Serine/threonine-protein kinase mTOR (Homo sapiens) (UniProt P42345); details: Compound concentration 1000.0 nM
[36] = target: Serine/threonine-protein kinase PRP4 homolog (Homo sapiens) (UniProt Q13523); details: Compound concentration 1000.0 nM
[37] = test system: Mast/stem cell growth factor receptor Kit (Homo sapiens), P10721 [L576P]; details: Compound concentration 1000.0 nM
[38] = test system: Phosphatidylinositol 4,5-bisphosphate 3-kinase catalytic subunit alpha isoform (Homo sapiens), P42336 [H1047Y]; details: Compound concentration 1000.0 nM
[39] = target: Tyrosine-protein kinase receptor Tie-1 (Homo sapiens) (UniProt P35590); details: Compound concentration 1000.0 nM
[40] = target: Cyclin-dependent kinase 15 (Homo sapiens) (UniProt Q96Q40); details: Compound concentration 1000.0 nM
[41] = target: Tyrosine-protein kinase Tec (Homo sapiens) (UniProt P42680); details: Compound concentration 1000.0 nM
[42] = target: Phosphatidylinositol 4-phosphate 3-kinase C2 domain-containing subunit beta (Homo sapiens) (UniProt O00750); details: Compound concentration 1000.0 nM
[43] = target: Homeodomain-interacting protein kinase 2 (Homo sapiens) (UniProt Q9H2X6); details: Compound concentration 1000.0 nM
[44] = target: Serine/threonine-protein kinase PLK4 (Homo sapiens) (UniProt O00444); details: Compound concentration 1000.0 nM
[45] = test system: Tyrosine-protein kinase ABL1 (Homo sapiens), P00519 [T315I]; details: Compound concentration 1000.0 nM

Interferon-induced, double-stranded RNA-activated protein kinase (Homo sapiens), sequence (P19525 whole entry): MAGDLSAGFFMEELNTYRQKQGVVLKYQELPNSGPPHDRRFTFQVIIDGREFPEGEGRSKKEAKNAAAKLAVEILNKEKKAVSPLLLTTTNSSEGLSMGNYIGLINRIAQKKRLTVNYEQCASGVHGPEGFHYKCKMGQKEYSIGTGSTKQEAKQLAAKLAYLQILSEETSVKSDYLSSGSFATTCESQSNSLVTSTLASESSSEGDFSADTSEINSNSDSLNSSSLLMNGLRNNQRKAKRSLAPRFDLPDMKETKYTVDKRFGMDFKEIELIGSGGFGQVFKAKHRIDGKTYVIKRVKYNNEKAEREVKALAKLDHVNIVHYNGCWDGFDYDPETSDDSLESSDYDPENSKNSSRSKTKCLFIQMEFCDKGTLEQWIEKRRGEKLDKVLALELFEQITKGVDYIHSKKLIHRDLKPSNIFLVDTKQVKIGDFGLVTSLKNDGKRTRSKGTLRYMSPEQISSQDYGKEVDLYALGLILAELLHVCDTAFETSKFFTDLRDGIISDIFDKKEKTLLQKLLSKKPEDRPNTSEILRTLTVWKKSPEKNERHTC
Casein kinase I isoform gamma-3 (Homo sapiens), sequence (Q9Y6M4 whole entry, looked up, canonical isoform): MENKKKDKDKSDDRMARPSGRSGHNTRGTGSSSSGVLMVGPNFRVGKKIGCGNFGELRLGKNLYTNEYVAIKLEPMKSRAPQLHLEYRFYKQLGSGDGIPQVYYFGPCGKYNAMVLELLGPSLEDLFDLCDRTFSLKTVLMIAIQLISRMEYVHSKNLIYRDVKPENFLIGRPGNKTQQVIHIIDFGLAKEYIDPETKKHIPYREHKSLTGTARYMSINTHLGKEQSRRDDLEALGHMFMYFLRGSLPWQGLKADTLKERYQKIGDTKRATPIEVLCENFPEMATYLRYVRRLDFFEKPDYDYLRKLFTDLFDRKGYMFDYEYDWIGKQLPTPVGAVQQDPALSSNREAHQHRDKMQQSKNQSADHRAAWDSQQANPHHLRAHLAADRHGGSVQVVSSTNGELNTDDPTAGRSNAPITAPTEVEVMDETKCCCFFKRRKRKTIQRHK
Cyclin-dependent kinase 13 (Homo sapiens), sequence (Q14004 whole entry, looked up): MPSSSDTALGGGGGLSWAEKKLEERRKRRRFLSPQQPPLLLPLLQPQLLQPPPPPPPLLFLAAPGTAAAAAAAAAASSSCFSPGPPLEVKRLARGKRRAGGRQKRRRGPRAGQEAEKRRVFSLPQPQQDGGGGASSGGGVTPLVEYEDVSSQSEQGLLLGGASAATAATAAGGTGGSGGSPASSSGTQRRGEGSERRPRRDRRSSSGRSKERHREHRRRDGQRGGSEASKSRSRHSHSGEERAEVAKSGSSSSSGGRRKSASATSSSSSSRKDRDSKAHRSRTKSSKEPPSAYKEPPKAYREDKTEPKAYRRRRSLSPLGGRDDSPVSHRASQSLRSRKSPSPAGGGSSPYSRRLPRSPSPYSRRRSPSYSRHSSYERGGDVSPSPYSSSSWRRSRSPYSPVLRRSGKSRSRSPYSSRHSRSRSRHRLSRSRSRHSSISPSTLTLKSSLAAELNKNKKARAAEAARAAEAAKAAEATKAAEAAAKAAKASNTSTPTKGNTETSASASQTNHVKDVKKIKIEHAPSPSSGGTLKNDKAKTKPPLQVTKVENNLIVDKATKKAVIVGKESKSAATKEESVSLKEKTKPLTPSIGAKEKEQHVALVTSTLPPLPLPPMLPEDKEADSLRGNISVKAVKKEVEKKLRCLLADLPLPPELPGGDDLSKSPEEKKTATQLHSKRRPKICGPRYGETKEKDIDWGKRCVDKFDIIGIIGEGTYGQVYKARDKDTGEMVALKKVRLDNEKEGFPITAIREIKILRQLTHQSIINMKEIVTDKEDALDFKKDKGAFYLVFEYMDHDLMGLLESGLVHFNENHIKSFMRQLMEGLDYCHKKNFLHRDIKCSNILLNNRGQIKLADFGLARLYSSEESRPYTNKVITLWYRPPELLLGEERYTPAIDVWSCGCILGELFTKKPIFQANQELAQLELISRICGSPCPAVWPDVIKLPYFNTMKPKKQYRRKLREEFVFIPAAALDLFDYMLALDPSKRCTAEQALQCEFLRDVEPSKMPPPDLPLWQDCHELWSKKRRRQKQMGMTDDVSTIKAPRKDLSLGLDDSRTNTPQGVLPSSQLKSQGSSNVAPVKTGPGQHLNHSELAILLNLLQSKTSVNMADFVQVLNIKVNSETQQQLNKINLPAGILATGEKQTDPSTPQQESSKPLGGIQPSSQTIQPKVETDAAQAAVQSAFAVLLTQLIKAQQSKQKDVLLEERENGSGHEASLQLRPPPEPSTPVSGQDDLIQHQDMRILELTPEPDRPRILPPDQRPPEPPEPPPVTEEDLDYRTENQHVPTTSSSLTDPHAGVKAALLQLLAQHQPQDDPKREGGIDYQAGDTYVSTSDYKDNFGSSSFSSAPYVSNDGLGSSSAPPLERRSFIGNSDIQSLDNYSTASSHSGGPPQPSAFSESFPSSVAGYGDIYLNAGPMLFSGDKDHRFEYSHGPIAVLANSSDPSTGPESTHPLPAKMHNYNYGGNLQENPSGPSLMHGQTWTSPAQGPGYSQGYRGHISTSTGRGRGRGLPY
MAP kinase-activated protein kinase 5 (Homo sapiens), sequence (Q8IW41 whole entry): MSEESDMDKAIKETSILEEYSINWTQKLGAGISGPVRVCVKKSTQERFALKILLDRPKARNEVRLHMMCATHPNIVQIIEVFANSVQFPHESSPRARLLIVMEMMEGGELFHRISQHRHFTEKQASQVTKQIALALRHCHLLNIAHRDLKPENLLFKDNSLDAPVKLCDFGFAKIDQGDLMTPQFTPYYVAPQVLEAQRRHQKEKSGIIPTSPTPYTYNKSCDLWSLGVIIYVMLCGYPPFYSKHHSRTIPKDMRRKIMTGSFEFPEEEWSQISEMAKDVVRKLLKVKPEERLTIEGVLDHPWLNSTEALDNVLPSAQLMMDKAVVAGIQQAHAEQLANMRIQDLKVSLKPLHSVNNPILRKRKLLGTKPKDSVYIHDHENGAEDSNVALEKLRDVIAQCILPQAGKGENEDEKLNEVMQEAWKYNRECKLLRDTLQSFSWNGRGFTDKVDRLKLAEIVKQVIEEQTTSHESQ
Tyrosine-protein kinase Tec (Homo sapiens), sequence (P42680 whole entry, the tested form may be a part): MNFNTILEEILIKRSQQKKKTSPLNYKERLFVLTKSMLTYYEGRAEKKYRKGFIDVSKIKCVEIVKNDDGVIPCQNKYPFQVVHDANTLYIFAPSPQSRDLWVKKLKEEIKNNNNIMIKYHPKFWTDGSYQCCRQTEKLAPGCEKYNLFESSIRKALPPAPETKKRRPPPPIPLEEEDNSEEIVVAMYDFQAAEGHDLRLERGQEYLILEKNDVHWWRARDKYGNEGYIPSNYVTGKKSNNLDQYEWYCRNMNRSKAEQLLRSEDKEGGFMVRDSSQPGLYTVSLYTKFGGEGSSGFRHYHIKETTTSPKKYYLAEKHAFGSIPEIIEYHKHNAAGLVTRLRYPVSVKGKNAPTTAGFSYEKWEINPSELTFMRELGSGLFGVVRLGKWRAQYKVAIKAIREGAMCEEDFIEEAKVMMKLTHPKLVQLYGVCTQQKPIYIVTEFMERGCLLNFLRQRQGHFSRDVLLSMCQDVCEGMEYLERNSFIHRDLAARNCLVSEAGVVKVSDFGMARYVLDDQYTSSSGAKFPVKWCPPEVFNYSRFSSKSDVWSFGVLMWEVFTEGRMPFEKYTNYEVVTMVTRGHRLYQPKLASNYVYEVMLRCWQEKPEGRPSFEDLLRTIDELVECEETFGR
Serine/threonine-protein kinase pim-1 (Homo sapiens), sequence (P11309 whole entry, looked up): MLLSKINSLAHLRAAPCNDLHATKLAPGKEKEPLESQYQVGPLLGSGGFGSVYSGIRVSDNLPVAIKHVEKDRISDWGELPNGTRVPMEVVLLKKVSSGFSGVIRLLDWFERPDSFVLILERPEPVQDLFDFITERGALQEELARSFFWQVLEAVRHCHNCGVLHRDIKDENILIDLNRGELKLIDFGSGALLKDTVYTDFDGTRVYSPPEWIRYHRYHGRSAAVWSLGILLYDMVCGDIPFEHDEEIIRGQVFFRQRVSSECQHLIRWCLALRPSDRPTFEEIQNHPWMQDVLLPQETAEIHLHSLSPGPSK
Activin receptor type-1B (Homo sapiens), sequence (P36896 whole entry): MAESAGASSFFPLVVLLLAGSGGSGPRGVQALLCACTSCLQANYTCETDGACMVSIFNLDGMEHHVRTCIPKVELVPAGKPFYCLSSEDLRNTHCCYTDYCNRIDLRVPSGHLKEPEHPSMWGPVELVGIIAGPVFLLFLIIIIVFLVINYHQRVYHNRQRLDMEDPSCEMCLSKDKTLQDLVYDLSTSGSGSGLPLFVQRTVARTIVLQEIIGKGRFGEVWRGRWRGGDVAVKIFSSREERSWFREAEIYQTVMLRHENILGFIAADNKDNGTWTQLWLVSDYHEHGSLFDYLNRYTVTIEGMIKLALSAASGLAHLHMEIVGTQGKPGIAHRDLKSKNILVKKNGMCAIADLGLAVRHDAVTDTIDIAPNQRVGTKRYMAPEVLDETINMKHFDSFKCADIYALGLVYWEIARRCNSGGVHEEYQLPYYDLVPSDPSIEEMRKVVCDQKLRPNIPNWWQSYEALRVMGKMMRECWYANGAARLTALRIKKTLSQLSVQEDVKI
5-hydroxytryptamine receptor 3A (Homo sapiens), sequence (P46098 whole entry): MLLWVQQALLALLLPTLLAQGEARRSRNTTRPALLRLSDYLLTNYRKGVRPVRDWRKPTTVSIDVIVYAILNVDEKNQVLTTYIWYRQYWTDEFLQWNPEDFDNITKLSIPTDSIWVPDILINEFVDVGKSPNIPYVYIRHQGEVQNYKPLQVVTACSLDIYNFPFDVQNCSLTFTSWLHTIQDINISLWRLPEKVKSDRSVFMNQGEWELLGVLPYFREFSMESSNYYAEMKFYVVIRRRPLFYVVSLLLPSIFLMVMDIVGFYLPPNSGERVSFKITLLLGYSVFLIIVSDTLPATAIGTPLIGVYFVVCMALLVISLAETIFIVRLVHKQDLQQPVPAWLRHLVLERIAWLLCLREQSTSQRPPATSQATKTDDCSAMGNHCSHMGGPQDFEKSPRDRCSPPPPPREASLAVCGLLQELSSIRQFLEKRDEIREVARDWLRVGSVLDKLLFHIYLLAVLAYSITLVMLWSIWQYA

For Nc1cnc(N2CCc3cc(S(=O)(=O)Nc4c(F)cc(Cl)cc4F)cc(N4CCCC4=O)c32)nc1, the residual activity [1] was 81%, the residual activity [2] was 100% and the residual activity [3] was 100%. The residual activity [4] was 95%, the residual activity [5] was 41% and the residual activity [6] was 92%. The residual activity [7] was 75%, the residual activity [8] was 100% and the residual activity [9] was 100%. For the same compound, the residual activity [10] was 100%, the residual activity [11] was 88% and the residual activity [12] was 88%. It also gave an inhibition [13] of 14.9%, a residual activity [14] of 100% and a residual activity [15] of 100%. It also gave a residual activity [16] of 49%, a residual activity [17] of 88% and an inhibition [18] of 0.32%. It also gave a residual activity [19] of 100%, a residual activity [20] of 100% and a residual activity [21] of 80%. It also gave a residual activity [22] of 98%, a residual activity [23] of 100% and a residual activity [24] of 100%. The residual activity [25] was 100%, the residual activity [26] was 78% and the residual activity [27] was 100%. For the same compound, the residual activity [28] was 100%, the residual activity [29] was 100% and the residual activity [30] was 92%. For the same compound, the residual activity [31] was 100%, the residual activity [32] was 96% and the residual activity [33] was 100%. The residual activity [34] was 100%, the residual activity [35] was 100% and the residual activity [36] was 76%. For the same compound, the residual activity [37] was 83%, the residual activity [38] was 100% and the residual activity [39] was 100%. For the same compound, the residual activity [40] was 80%, the residual activity [41] was 99% and the residual activity [42] was 83%. It also gave a residual activity [43] of 100%, a residual activity [44] of 100% and a residual activity [45] of 100%.
Cn1nc(C(F)(F)F)cc1-c1cnc(N2CCc3cc(S(=O)(=O)Nc4c(F)cc(Cl)cc4F)cc(N4CCCC4=O)c32)nc1 [TP-020] gave a residual activity [1] of 87%, a residual activity [2] of 72% and a residual activity [3] of 100%. It also gave a residual activity [4] of 100%, a residual activity [5] of 100% and a residual activity [6] of 95%. It also gave a residual activity [7] of 93%, a residual activity [8] of 100% and a residual activity [9] of 100%. For the same compound, the residual activity [10] was 83%, the residual activity [11] was 99% and the residual activity [12] was 97%. The inhibition [13] was 14.6%, the residual activity [14] was 86% and the residual activity [15] was 66%. It also gave a residual activity [16] of 65%, a residual activity [17] of 95% and an inhibition [18] of 7.45%. The residual activity [19] was 82%, the residual activity [20] was 82% and the residual activity [21] was 73%. The residual activity [22] was 100%, the residual activity [23] was 100% and the residual activity [24] was 94%. It also gave a residual activity [25] of 98%, a residual activity [26] of 81% and a residual activity [27] of 100%. It also gave a residual activity [28] of 75%, a residual activity [29] of 79% and a residual activity [30] of 84%. For the same compound, the residual activity [31] was 99%, the residual activity [32] was 96% and the residual activity [33] was 86%. It also gave a residual activity [34] of 99%, a residual activity [35] of 78% and a residual activity [36] of 100%. For the same compound, the residual activity [37] was 93%, the residual activity [38] was 76% and the residual activity [39] was 100%. The residual activity [40] was 100%, the residual activity [41] was 79% and the residual activity [42] was 99%. The residual activity [43] was 74%, the residual activity [44] was 77% and the residual activity [45] was 74%.
